Assay: Critical micelle concentration (CMC) by UV-visible spectrophotometer
Format: physicochemical
Conditions: in methanol; absorbance at 283 nm; 0.001-0.09 mM range
Procedure: CMC of the synthesized resorcinarene based amphiphilic supramolecular macrocycle was investigated in methanol using UV-visible spectrophotometer. Amphiphile methanolic solutions in 0.001-0.09 mM range were read on UV-visible spectrophotometer, giving characteristic absorbance at 283 nm.

## CCCCCCCCCCCCCCCCOc1ccc(C2c3cc(c(O)cc3O)C(c3ccc(OCCCCCCCCCCCCCCCC)cc3)c3cc(c(O)cc3O)C(c3ccc(OCCCCCCCCCCCCCCCC)cc3)c3cc(c(O)cc3O)C(c3ccc(OCCCCCCCCCCCCCCCC)cc3)c3cc2c(O)cc3O)cc1 (stereo not shown) [ASRM]
  CMC: 0.04 mM

— patent US10751285B1, “Synthesis of C resorcinarene based novel amphiphilic supramolecular macrocycle as nano-scale drug loading system” (priority 2019, dated 2020)
